Measurements taken from ChEMBL document CHEMBL1143510, “Synthesis and in vitro antitumor activity of 4(3H)-quinazolinone derivatives with dithiocarbamate side chains” (Bioorg Med Chem Lett, 2005).

System: K562
Assay: In vitro cytotoxic concentration measured against human myelogenous leukemia K562 cells
Assay type: functional, cell-based

Compound	IC50 [µM]
Cc1nc(O)c2cc(CS/C(S)=N/C3CCCCC3)ccc2n1	31
Cc1nc(O)c2cc(CS/C(S)=N/CCCN(C)C)ccc2n1	25.6
Cc1nc(O)c2cc(CS/C(S)=N/Cc3ccco3)ccc2n1	2.1
Cc1nc(O)c2cc(CSC(=S)N3CCCCC3)ccc2n1	11.3
Cc1nc(O)c2cc(CSC(=S)N3CCN(C)CC3)ccc2n1	10.8
CN(Cc1cnc2nc(N)nc(N)c2n1)c1ccc(C(=O)N[C@@H](CCC(=O)O)C(=O)O)cc1 [METHOTREXATE]	419
Cc1nc(O)c2cc(CSC(=S)N3CCN(Cc4ccccc4)CC3)ccc2n1	7.4
Cc1nc(O)c2cc(CSC(=S)N3CCN(C(c4ccc(F)cc4)c4ccc(F)cc4)CC3)ccc2n1	4.3
Cc1nc(O)c2cc(CSC(=S)N3CCN(c4ccc(F)cc4)CC3)ccc2n1	0.5
Cc1nc(O)c2cc(CS/C(S)=N/C34CC5CC(CC(C5)C3)C4)ccc2n1	30.6
CCN(CC)C(=S)SCc1ccc2nc(C)nc(O)c2c1	4.4
Cc1nc(O)c2cc(CSC(=S)N3CCOCC3)ccc2n1	7.2
Cc1nc(O)c2cc(CSC(=S)N3CC(C)OC(C)C3)ccc2n1 (centres undefined)	3.7
CCOC(=O)C1(c2ccccc2)CCN(C(=S)SCc2ccc3nc(C)nc(O)c3c2)CC1	8.7
CCOC(=O)C1CSCN1C(=S)SCc1ccc2nc(C)nc(O)c2c1 (centres undefined)	11
Cc1nc(O)c2cc(CSC(=S)N3CCc4ccccc4C3)ccc2n1	3.3
CSC(=S)NCc1c[nH]c2ccccc12 [BRASSININ]	128
Cc1nc(O)c2cc(CSC(=S)N(C3CCCCC3)C3CCCCC3)ccc2n1	7.6
Cc1nc(O)c2cc(CS/C(S)=N/Cc3ccccc3)ccc2n1	4
